# Measurements published in patent US20250163104A1, “MACROCYCLIC IMMUNOMODULATORS” (priority 2021, published 2025).
# Where a SMILES comes first, the peptide text is derived from it. Bridges are numbered along the chain shown (N, C = ends). [ ]: non-standard residue; d: D form. The star is where a group is joined. Phe(4-COOH) = N[C@@H](Cc1ccc(C(=O)O)cc1)C(=O)O; Bip = N[C@@H](Cc1ccc(-c2ccccc2)cc1)C(=O)O; 3Pal = N[C@@H](Cc1cccnc1)C(=O)O; 4Pal = N[C@@H](Cc1ccncc1)C(=O)O; Carboxymethyl = O=C(O)C*; Orn = NCCC[C@H](N)C(=O)O; Dab = NCC[C@H](N)C(=O)O; Dap = NC[C@H](N)C(=O)O
# Target: T1, human PD-1 / PD-L1-Ig binding on Jurkat cell line over-expressing human PD-1 (Jurkat-PD-1) (Homo sapiens, UniProt Q15116)
# T1 construct: expressed in transfected cells; host or cells: Jurkat
# T1 sequence (Q15116 25-288): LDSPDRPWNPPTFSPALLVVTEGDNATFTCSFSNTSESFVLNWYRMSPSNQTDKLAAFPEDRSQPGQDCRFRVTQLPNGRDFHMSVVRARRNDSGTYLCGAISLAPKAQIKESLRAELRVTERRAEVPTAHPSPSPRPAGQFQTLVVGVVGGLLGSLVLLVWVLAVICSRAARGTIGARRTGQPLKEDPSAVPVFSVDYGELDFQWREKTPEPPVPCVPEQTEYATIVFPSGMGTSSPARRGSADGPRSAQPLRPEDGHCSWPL
# Test: Jurkat-PD-1 Cell Binding High-Content Screening Assay (CBA)
# Format: cell-based
# Details: Jurkat-PD-1 cells, PE-labeled PD-L1-Ig 20 nM final; read-out: Jurkat HPD1_PDL1 IC50
# Summary of the method: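 Binding of fluorescent PD-L1-Ig (phycoerythrin linked via the Ig tag, 20 nM final) to PD-1-overexpressing Jurkat cells was imaged after a 2 h, 37° C compound pretreatment and 1 hour ligand incubation.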
row,IC50,SMILES
1,14 nM,CC(C)C[C@@H]1NC(=O)[C@H](CCN)NC(=O)[C@@H](CC(C)C)NC(=O)[C@H](CCCN)NC(=O)[C@H](C(C)C)NC(=O)[C@H](Cc2ccc(-c3ccccc3)cc2)NC(=O)[C@H](C(C)C)NC(=O)[C@H](Cc2c[nH]c3ccccc23)NC(=O)[C@H](CC(=O)O)NC(=O)[C@H](Cc2ccc(C(=O)O)cc2)NC(=O)[C@H](CN)NC(=O)CSC[C@@H](C(=O)N[C@@H](C)C(N)=O)NC(=O)[C@H]([C@@H](C)O)NC(=O)[C@H](C(C)C)NC1=O [Compound 1046] ({CH2CO}-[Dap][Phe(4-COOH)]DWV[Bip]V[Orn][dL][Dab]LVTCA-NH2; thioether N-14)
2,6.7 nM,CC(C)C[C@@H]1NC(=O)[C@H](CCN)NC(=O)[C@@H](CC(C)C)NC(=O)[C@H](CCCN)NC(=O)[C@H](C(C)C)NC(=O)[C@H](Cc2ccc(-c3ccccc3)cc2)NC(=O)[C@H](C(C)C)NC(=O)[C@H](Cc2c[nH]c3ccccc23)NC(=O)[C@H](CC(=O)O)NC(=O)[C@H](Cc2ccc(O)cc2)NC(=O)[C@H](Cc2ccncc2)NC(=O)CSC[C@@H](C(=O)N[C@@H](C)C(N)=O)NC(=O)[C@H]([C@@H](C)O)NC(=O)[C@H](C(C)C)NC1=O [Compound 1047] ({CH2CO}-[4Pal]YDWV[Bip]V[Orn][dL][Dab]LVTCA-NH2; thioether N-14)
3,13.7 nM,CC(C)C[C@@H]1NC(=O)[C@H](CCN)NC(=O)[C@@H](CC(C)C)NC(=O)[C@H](CCCN)NC(=O)[C@H](C(C)C)NC(=O)[C@H](Cc2ccc(-c3ccccc3)cc2)NC(=O)[C@H](C(C)C)NC(=O)[C@H](Cc2c[nH]c3ccccc23)NC(=O)[C@H](CC(=O)O)NC(=O)[C@H](Cc2ccc(OCC(=O)O)cc2)NC(=O)[C@H](CN)NC(=O)CSC[C@@H](C(=O)N[C@@H](C)C(N)=O)NC(=O)[C@H]([C@@H](C)O)NC(=O)[C@H](C(C)C)NC1=O [Compound 1048] ({CH2CO}-[Dap]Y(Carboxymethyl)DWV[Bip]V[Orn][dL][Dab]LVTCA-NH2; thioether N-14)
4,7.2 nM,CC(C)C[C@@H]1NC(=O)[C@H](CCN)NC(=O)[C@@H](CC(C)C)NC(=O)[C@H](CCCN)NC(=O)[C@H](C(C)C)NC(=O)[C@H](Cc2ccc(-c3ccccc3)cc2)NC(=O)[C@H](C(C)C)NC(=O)[C@H](Cc2c[nH]c3ccccc23)NC(=O)[C@H](CC(=O)O)NC(=O)[C@H](Cc2ccc(C(=O)O)cc2)NC(=O)[C@H](Cc2cccnc2)NC(=O)CSC[C@@H](C(=O)N[C@@H](C)C(N)=O)NC(=O)[C@H]([C@@H](C)O)NC(=O)[C@H](C(C)C)NC1=O [Compound 1049] ({CH2CO}-[3Pal][Phe(4-COOH)]DWV[Bip]V[Orn][dL][Dab]LVTCA-NH2; thioether N-14)
5,9.9 nM,CC(C)C[C@@H]1NC(=O)[C@H](CCN)NC(=O)[C@@H](CC(C)C)NC(=O)[C@H](CCCN)NC(=O)[C@H](C(C)C)NC(=O)[C@H](Cc2ccc(-c3ccccc3)cc2)NC(=O)[C@H](C(C)C)NC(=O)[C@H](Cc2c[nH]c3ccccc23)NC(=O)[C@H](CC(=O)O)NC(=O)[C@H](Cc2ccc(O)cc2)NC(=O)[C@H](Cc2cccnc2)NC(=O)CSC[C@@H](C(=O)N[C@@H](C)C(N)=O)NC(=O)[C@H]([C@@H](C)O)NC(=O)[C@H](C(C)C)NC1=O [Compound 1050] ({CH2CO}-[3Pal]YDWV[Bip]V[Orn][dL][Dab]LVTCA-NH2; thioether N-14)
6,5.2 nM,CC(C)C[C@@H]1NC(=O)[C@H](CCN)NC(=O)[C@@H](CC(C)C)NC(=O)[C@H](CCCN)NC(=O)[C@H](C(C)C)NC(=O)[C@H](Cc2ccc(-c3ccccc3)cc2)NC(=O)[C@H](C(C)C)NC(=O)[C@H](Cc2c[nH]c3ccccc23)NC(=O)[C@H](CC(=O)O)NC(=O)[C@H](Cc2ccc(OCC(=O)O)cc2)NC(=O)[C@H](Cc2ccncc2)NC(=O)CSC[C@@H](C(=O)N[C@@H](C)C(N)=O)NC(=O)[C@H]([C@@H](C)O)NC(=O)[C@H](C(C)C)NC1=O [Compound 1051] ({CH2CO}-[4Pal]Y(Carboxymethyl)DWV[Bip]V[Orn][dL][Dab]LVTCA-NH2; thioether N-14)
7,11.8 nM,CC[C@H](C)[C@@H]1NC(=O)[C@H](Cc2ccc(-c3ccccc3)cc2)NC(=O)[C@H](C(C)C)NC(=O)[C@H](Cc2c[nH]c3ccccc23)NC(=O)[C@H](CC(=O)O)NC(=O)[C@H](Cc2ccc(C(=O)O)cc2)NC(=O)[C@H](CN)NC(=O)CSC[C@@H](C(=O)N[C@@H](C)C(N)=O)NC(=O)[C@H]([C@@H](C)O)NC(=O)[C@H](C(C)C)NC(=O)[C@H](CC(C)C)NC(=O)[C@H](CCN)NC(=O)[C@@H](CC(C)C)NC(=O)[C@H](CCCN)NC1=O [Compound 1052] ({CH2CO}-[Dap][Phe(4-COOH)]DWV[Bip]I[Orn][dL][Dab]LVTCA-NH2; thioether N-14)
8,13.7 nM,CC[C@H](C)[C@@H]1NC(=O)[C@H](Cc2ccc(-c3ccccc3)cc2)NC(=O)[C@H](C(C)C)NC(=O)[C@H](Cc2c[nH]c3ccccc23)NC(=O)[C@H](CC(=O)O)NC(=O)[C@H](Cc2ccc(O)cc2)NC(=O)[C@H](Cc2ccncc2)NC(=O)CSC[C@@H](C(=O)N[C@@H](C)C(N)=O)NC(=O)[C@H]([C@@H](C)O)NC(=O)[C@H](C(C)C)NC(=O)[C@H](CC(C)C)NC(=O)[C@H](CCN)NC(=O)[C@@H](CC(C)C)NC(=O)[C@H](CCCN)NC1=O [Compound 1053] ({CH2CO}-[4Pal]YDWV[Bip]I[Orn][dL][Dab]LVTCA-NH2; thioether N-14)
9,9 nM,CC[C@H](C)[C@@H]1NC(=O)[C@H](Cc2ccc(-c3ccccc3)cc2)NC(=O)[C@H](C(C)C)NC(=O)[C@H](Cc2c[nH]c3ccccc23)NC(=O)[C@H](CC(=O)O)NC(=O)[C@H](Cc2ccc(OCC(=O)O)cc2)NC(=O)[C@H](CN)NC(=O)CSC[C@@H](C(=O)N[C@@H](C)C(N)=O)NC(=O)[C@H]([C@@H](C)O)NC(=O)[C@H](C(C)C)NC(=O)[C@H](CC(C)C)NC(=O)[C@H](CCN)NC(=O)[C@@H](CC(C)C)NC(=O)[C@H](CCCN)NC1=O [Compound 1054] ({CH2CO}-[Dap]Y(Carboxymethyl)DWV[Bip]I[Orn][dL][Dab]LVTCA-NH2; thioether N-14)
10,5.8 nM,CC[C@H](C)[C@@H]1NC(=O)[C@H](Cc2ccc(-c3ccccc3)cc2)NC(=O)[C@H](C(C)C)NC(=O)[C@H](Cc2c[nH]c3ccccc23)NC(=O)[C@H](CC(=O)O)NC(=O)[C@H](Cc2ccc(C(=O)O)cc2)NC(=O)[C@H](Cc2ccncc2)NC(=O)CSC[C@@H](C(=O)N[C@@H](C)C(N)=O)NC(=O)[C@H]([C@@H](C)O)NC(=O)[C@H](C(C)C)NC(=O)[C@H](CC(C)C)NC(=O)[C@H](CCN)NC(=O)[C@@H](CC(C)C)NC(=O)[C@H](CCCN)NC1=O [Compound 1055] ({CH2CO}-[4Pal][Phe(4-COOH)]DWV[Bip]I[Orn][dL][Dab]LVTCA-NH2; thioether N-14)
11,8.6 nM,CC[C@H](C)[C@@H]1NC(=O)[C@H](Cc2ccc(-c3ccccc3)cc2)NC(=O)[C@H](C(C)C)NC(=O)[C@H](Cc2c[nH]c3ccccc23)NC(=O)[C@H](CC(=O)O)NC(=O)[C@H](Cc2ccc(O)cc2)NC(=O)[C@H](CN)NC(=O)CSC[C@@H](C(=O)N[C@@H](C)C(N)=O)NC(=O)[C@H]([C@@H](C)O)NC(=O)[C@H](C(C)C)NC(=O)[C@H](CC(C)C)NC(=O)[C@H](CCN)NC(=O)[C@@H](CC(C)C)NC(=O)[C@H](CCCN)NC1=O [Compound 1056] ({CH2CO}-[Dap]YDWV[Bip]I[Orn][dL][Dab]LVTCA-NH2; thioether N-14)
12,129 nM,CC[C@H](C)[C@@H]1NC(=O)[C@H](Cc2ccc(-c3ccccc3)cc2)NC(=O)[C@H](C(C)C)NC(=O)[C@H](Cc2c[nH]c3ccccc23)NC(=O)[C@H](CC(=O)O)NC(=O)[C@H](Cc2ccc(OCC(=O)O)cc2)NC(=O)[C@H](Cc2ccncc2)NC(=O)CSC[C@@H](C(=O)N[C@@H](C)C(N)=O)NC(=O)[C@H]([C@@H](C)O)NC(=O)[C@H](C(C)C)NC(=O)[C@H](CC(C)C)NC(=O)[C@H](CCN)NC(=O)[C@@H](CC(C)C)NC(=O)[C@H](CCCN)NC1=O [Compound 1057] ({CH2CO}-[4Pal]Y(Carboxymethyl)DWV[Bip]I[Orn][dL][Dab]LVTCA-NH2; thioether N-14)
13,18.1 nM,CC(C)C[C@@H]1NC(=O)[C@H](Cc2c[nH]c3ccccc23)NC(=O)[C@H](CC(=O)O)NC(=O)[C@H](Cc2ccc(O)cc2)NC(=O)[C@H](Cc2ccccc2)NC(=O)CSC[C@@H](C(=O)N[C@@H](C)C(N)=O)NC(=O)[C@H]([C@@H](C)O)NC(=O)[C@H](C(C)C)NC(=O)[C@H](CC(C)C)NC(=O)[C@H](CC(N)=O)NC(=O)[C@@H](CC(C)C)NC(=O)[C@H](CCN)NC(=O)[C@H](C(C)C)NC(=O)[C@H](Cc2ccc(-c3ccccc3)cc2)NC1=O [Compound 1058] ({CH2CO}-FYDWL[Bip]V[Dab][dL]NLVTCA-NH2; thioether N-14)
14,28.5 nM,CC(C)C[C@@H]1NC(=O)[C@H](Cc2c[nH]c3ccccc23)NC(=O)[C@H](CC(=O)O)NC(=O)[C@H](Cc2ccc(O)cc2)NC(=O)[C@H](Cc2ccccc2)NC(=O)CSC[C@@H](C(=O)NCC(N)=O)NC(=O)[C@H](CO)NC(=O)[C@H](C(C)C)NC(=O)[C@H](CC(C)C)NC(=O)[C@H](CC(N)=O)NC(=O)[C@@H](CC(C)C)NC(=O)[C@H](CCN)NC(=O)[C@H](C(C)C)NC(=O)[C@H](Cc2ccc(-c3ccccc3)cc2)NC1=O [Compound 1059] ({CH2CO}-FYDWL[Bip]V[Dab][dL]NLVSCG-NH2; thioether N-14)
15,16.4 nM,CC(C)C[C@@H]1NC(=O)[C@H](Cc2c[nH]c3ccccc23)NC(=O)[C@H](CC(=O)O)NC(=O)[C@H](Cc2ccc(O)cc2)NC(=O)[C@H](Cc2ccccc2)NC(=O)CSC[C@@H](C(=O)NCC(N)=O)NC(=O)[C@H]([C@@H](C)O)NC(=O)[C@H](C(C)C)NC(=O)[C@H](CC(C)C)NC(=O)[C@H](CCN)NC(=O)[C@@H](CC(C)C)NC(=O)[C@H](CCN)NC(=O)[C@H](C(C)C)NC(=O)[C@H](Cc2ccc(-c3ccccc3)cc2)NC1=O [Compound 1060] ({CH2CO}-FYDWL[Bip]V[Dab][dL][Dab]LVTCG-NH2; thioether N-14)
